Legend:
Format in all cases: biochemical
ROCK1 = ROCK1 (Homo sapiens, UniProt Q13464); test: In vitro inhibitory activity assay ROCK1 (ADP-Glo); details: ATP 200 μM, Cheng-Prusoff; read-out: ROCK 1 (Ki, range of activity)
Experimental: (§1) In Vitro Inhibitory Activity Assay Description ROCK1 and ROCK2
(§2) The effectiveness of compounds of the present invention to inhibit Rho kinase activity can be determined in a 10 μl assay containing 40 mM Tris pH7.5, 20 mM MgCl2 0.1 mg/mL BSA, 50 μM DTT and 2.5 μM peptide substrate (Myelin Basic Protein) using an ADP-Glo kit (Promega). Compounds were dissolved in DMSO such that the final concentration of DMSO was 1% in the assay. All reactions/incubations are performed at 25° C. Compound (2 ul) and either Rho kinase 1 or 2 (4 μl) were mixed and incubated for 30 mins. Reactions were initiated by addition of ATP (4 μl) such that the final concentration of ATP in the assay was 200 μM. After a 1 hour incubation 10 μl of ADP-Glo Reagent was added and after a further 1 hour incubation 20 ul of Kinase Detection Buffer was added and the mixture incubated for a further 45 minutes. The luminescent signal was measured on a luminometer. […] Compounds were tested in dose-response format and the inhibition of kinase activity was calculated at each concentration of compound. To determine the IC50 (concentration of compound required to inhibit 50% of the enzyme activity) data were fit to a plot of % inhibition vs Log 10 compound concentration using a sigmoidal fit with a variable slope and fixing the maximum to 100% and the minimum to 0%. To determine the Ki values the Cheng-Prusoff equation was utilized (Ki=IC50/(1+[S]/Km).

ROCK2 = ROCK2 (Homo sapiens, UniProt O75116); test: In vitro inhibitory activity assay ROCK2 (ADP-Glo); details: ATP 200 μM, Cheng-Prusoff; read-out: ROCK2 (Ki, range of activity)
ROCK2, sequence (O75116 whole entry): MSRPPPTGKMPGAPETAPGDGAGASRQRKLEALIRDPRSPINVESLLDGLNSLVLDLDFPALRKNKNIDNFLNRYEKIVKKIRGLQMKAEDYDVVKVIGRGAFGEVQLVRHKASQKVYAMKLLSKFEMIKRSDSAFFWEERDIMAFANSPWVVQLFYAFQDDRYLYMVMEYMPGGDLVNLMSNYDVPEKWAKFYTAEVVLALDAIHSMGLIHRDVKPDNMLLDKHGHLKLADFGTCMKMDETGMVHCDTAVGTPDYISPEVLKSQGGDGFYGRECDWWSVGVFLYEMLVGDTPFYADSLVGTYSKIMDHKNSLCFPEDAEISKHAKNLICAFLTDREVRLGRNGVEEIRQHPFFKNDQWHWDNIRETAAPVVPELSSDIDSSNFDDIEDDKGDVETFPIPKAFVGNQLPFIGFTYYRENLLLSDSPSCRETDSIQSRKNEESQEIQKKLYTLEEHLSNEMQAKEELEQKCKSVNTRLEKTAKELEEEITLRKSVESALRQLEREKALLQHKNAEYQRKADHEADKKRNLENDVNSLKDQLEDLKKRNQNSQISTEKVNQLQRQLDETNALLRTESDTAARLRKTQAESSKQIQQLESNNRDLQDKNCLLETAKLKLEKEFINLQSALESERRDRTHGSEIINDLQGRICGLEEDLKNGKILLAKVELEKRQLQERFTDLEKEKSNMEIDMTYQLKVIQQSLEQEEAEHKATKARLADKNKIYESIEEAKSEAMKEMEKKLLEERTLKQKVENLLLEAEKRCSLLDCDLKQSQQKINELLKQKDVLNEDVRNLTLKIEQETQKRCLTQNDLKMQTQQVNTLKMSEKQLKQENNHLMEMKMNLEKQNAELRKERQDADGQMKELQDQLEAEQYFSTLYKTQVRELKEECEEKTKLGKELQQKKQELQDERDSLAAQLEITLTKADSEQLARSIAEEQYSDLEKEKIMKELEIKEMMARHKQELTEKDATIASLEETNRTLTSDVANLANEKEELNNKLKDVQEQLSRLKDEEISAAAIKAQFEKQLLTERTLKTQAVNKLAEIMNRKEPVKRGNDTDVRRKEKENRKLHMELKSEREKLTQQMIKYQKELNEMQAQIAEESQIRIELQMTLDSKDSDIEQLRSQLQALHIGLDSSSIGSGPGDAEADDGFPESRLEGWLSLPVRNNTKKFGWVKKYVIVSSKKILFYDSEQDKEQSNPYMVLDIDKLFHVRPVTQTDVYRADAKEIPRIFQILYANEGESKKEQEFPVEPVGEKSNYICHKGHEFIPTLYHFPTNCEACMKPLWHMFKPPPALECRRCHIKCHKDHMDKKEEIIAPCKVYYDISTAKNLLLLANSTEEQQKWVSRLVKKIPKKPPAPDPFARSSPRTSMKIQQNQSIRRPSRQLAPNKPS
Experimental: as §1, §2

PKA = PKA (Homo sapiens, UniProt P17612); test: In vitro inhibitory activity assay for PKA (ADP-Glo), reported as selectivity ratio vs ROCK2; details: Ki value for PKA divided by Ki value of ROCK2
Experimental: In Vitro Inhibitory Activity Assay Description for PKA
The effectiveness of compounds of the present invention to inhibit PKA activity can be determined in a 10 μl assay containing 40 mM Tris pH7.5, 20 mM MgCl2 0.1 mg/ml BSA, 50 μM DTT and 260 μM peptide substrate (kemptide) using an ADP-Glo kit (Promega). Compounds were dissolved in DMSO such that the final concentration of DMSO was 1% in the assay. All reactions/incubations are performed at 25° C. Compound and PKA enzyme (6 μl) were mixed and incubated for 30 mins. Reactions were initiated by addition of ATP (4 μl) such that the final concentration of ATP in the assay was 10 μM. After a 30 minute incubation 10p of ADP-Glo Reagent was added and after a further 1 hour incubation 20 μl of Kinase Detection Buffer was added and the mixture incubated for a further 45 minutes. The luminescent signal was measured on a luminometer. […] Compounds were tested in dose-response format and the inhibition of kinase activity was calculated at each concentration of compound. To determine the IC50 (concentration of compound required to inhibit 50% of the enzyme activity) data were fit to a plot of % inhibition vs Log10 compound concentration using a sigmoidal fit with a variable slope and fixing the maximum to 100% and the minimum to 0%. To determine the Ki values the Cheng-Prusoff equation was utilized (Ki=IC50/(1+[S]/Km).
In vitro inhibitory activities for PKA were reported as selectivity ratio vs. ROCK-2.

ROCK1, sequence (Q13464 whole entry): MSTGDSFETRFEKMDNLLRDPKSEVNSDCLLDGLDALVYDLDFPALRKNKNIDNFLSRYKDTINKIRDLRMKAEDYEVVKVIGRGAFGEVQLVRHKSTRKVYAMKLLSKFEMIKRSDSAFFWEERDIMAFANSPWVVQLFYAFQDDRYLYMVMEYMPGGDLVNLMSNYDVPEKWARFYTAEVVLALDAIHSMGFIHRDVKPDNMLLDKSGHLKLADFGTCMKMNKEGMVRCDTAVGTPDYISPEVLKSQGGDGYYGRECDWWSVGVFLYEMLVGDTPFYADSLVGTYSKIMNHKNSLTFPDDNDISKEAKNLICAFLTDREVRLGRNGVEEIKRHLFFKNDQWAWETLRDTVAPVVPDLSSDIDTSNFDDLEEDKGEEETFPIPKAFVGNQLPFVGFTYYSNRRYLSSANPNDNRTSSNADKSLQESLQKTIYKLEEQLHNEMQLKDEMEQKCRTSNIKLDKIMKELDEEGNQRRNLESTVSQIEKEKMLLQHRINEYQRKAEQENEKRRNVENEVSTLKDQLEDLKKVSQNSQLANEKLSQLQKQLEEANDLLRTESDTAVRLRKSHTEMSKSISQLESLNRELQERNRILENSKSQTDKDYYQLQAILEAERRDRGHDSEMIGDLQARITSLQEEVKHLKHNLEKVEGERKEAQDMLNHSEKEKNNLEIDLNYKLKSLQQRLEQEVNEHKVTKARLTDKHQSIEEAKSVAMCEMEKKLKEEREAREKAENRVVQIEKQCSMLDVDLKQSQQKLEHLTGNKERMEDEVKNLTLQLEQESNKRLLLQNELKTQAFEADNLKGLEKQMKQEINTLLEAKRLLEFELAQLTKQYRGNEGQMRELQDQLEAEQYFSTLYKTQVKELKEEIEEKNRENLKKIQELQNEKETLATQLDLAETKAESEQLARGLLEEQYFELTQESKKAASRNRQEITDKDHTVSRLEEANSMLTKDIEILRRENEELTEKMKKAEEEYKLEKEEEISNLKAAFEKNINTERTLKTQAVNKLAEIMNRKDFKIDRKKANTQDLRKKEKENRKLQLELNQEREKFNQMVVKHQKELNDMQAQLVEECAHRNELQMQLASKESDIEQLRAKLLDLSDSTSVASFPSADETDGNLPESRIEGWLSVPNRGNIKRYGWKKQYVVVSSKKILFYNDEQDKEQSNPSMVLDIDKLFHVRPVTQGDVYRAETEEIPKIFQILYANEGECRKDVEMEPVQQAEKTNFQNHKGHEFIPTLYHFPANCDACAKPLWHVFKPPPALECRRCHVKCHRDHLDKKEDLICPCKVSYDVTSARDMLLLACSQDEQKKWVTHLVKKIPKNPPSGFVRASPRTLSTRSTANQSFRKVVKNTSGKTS

Structure (SMILES)	Ki (ROCK1)	Ki (ROCK2)	Ratio (PKA/ROCK2) (PKA)
Nc1nccc(-c2cnc(NCc3cccc(C(=O)N[C@H]4C[C@@H](OC(F)F)C4)c3)c3c2OCC3)n1 [Example 26, 3-(((7-(2-aminopyrimidin-4-yl)-2,3-dihydrofuro[3,2-c]pyridin-4-yl)amino)methyl)-N-((1s,3s)-3-(difluoromethoxy)cyclobutyl)benzamide]	≤ 3 nM	≤ 3 nM	*** (ratio≥10)
COCC1(CNC(=O)c2cccc(CNc3ncc(-c4ccnc(N)n4)c4c3CCO4)c2)CC1 [Example 28, 3-(((7-(2-Aminopyrimidin-4-yl)-2,3-dihydrofuro[3,2-c]pyridin-4-yl)amino)methyl)-N-((1-(methoxymethyl)cyclopropyl)methyl)benzamide]	3 to 30 nM	≤ 3 nM	*** (ratio≥10)
CO[C@H]1C[C@H](CNC(=O)c2cccc(CNc3ncc(-c4ccnc(N)n4)c4c3CCO4)c2)C1 [Example 39, 3-(((7-(2-Aminopyrimidin-4-yl)-2,3-dihydrofuro[3,2-c]pyridin-4-yl)amino)methyl)-N-(((1R,3R)-3-methoxycyclobutyl)methyl)benzamide]	≤ 3 nM	≤ 3 nM	*** (ratio≥10)
CO[C@H]1C[C@H](NC(=O)c2cccc(CNc3ncc(-c4ccnc(N)n4)c4c3CCO4)c2)C1 [Example 41, 3-(((7-(2-Aminopyrimidin-4-yl)-2,3-dihydrofuro[3,2-c]pyridin-4-yl)amino)methyl)-N-((1R,3R)-3-methoxycyclobutyl)benzamide]	≤ 3 nM	≤ 3 nM	*** (ratio≥10)
Nc1nccc(-c2cnc(NCc3cccc(C(=O)NC[C@H]4CCCO4)c3)c3c2OCC3)n1 [Example 42, (R)-3-(((7-(2-Aminopyrimidin-4-yl)-2,3-dihydrofuro[3,2-c]pyridin-4-yl)amino)methyl)-N-((tetrahydrofuran-2-yl)methyl)benzamide]	≤ 3 nM	≤ 3 nM	*** (ratio≥10)
Nc1nccc(-c2cnc(NCc3cccc(C(=O)NC[C@@H]4CCCO4)c3)c3c2OCC3)n1 [Example 43, (S)-3-(((7-(2-Aminopyrimidin-4-yl)-2,3-dihydrofuro[3,2-c]pyridin-4-yl)amino)methyl)-N-((tetrahydrofuran-2-yl)methyl)benzamide]	≤ 3 nM	≤ 3 nM	*** (ratio≥10)
Nc1nccc(-c2cnc(NCc3cccc(C(=O)N[C@H]4C[C@@H](F)C4)c3)c3c2OCC3)n1 [Example 48, 3-(((7-(2-Aminopyrimidin-4-yl)-2,3-dihydrofuro[3,2-c]pyridin-4-yl)amino)methyl)-N-((1S,3S)-3-fluorocyclobutyl)benzamide]	≤ 3 nM	≤ 3 nM	** (5≤ratio<10)
Nc1nccc(-c2cnc(NCc3cccc(C(=O)N[C@H]4C[C@H](F)C4)c3)c3c2OCC3)n1 [Example 49, 3-(((7-(2-Aminopyrimidin-4-yl)-2,3-dihydrofuro[3,2-c]pyridin-4-yl)amino)methyl)-N-((1r,3r)-3-fluorocyclobutyl)benzamide]	≤ 3 nM	≤ 3 nM	*** (ratio≥10)
CNC(=O)c1cccc(CNc2ncc(-c3ccnc(N)n3)c3c2CCO3)c1F [Example 54, 3-(((7-(2-Aminopyrimidin-4-yl)-2,3-dihydrofuro[3,2-c]pyridin-4-yl)amino)methyl)-2-fluoro-N-methylbenzamide]	> 30 nM	3 to 30 nM	*** (ratio≥10)
COCCCNC(=O)c1cccc(CNc2ncc(-c3ccnc(N)n3)c3c2CCO3)c1F [Example 55, 3-(((7-(2-Aminopyrimidin-4-yl)-2,3-dihydrofuro[3,2-c]pyridin-4-yl)amino)methyl)-2-fluoro-N-(3-methoxypropyl)benzamide]	3 to 30 nM	≤ 3 nM	*** (ratio≥10)

The next lines start with the values.

Ki (ROCK1)	Ki (ROCK2)	Ratio (PKA/ROCK2) (PKA)	Structure (SMILES)
≤ 3 nM	≤ 3 nM	*** (ratio≥10)	COC(C)(C)CNC(=O)c1cccc(CNc2ncc(-c3ccnc(N)n3)c3c2CCO3)c1 [Example 27, 3-(((7-(2-Aminopyrimidin-4-yl)-2,3-dihydrofuro[3,2-c]pyridin-4-yl)amino)methyl)-N-(2-methoxy-2-methylpropyl)benzamide]
≤ 3 nM	≤ 3 nM	*** (ratio≥10)	Nc1nccc(-c2cnc(NCc3cccc(C(=O)NCCCF)c3)c3c2OCC3)n1 [Example 29, 3-(((7-(2-Aminopyrimidin-4-yl)-2,3-dihydrofuro[3,2-c]pyridin-4-yl)amino)methyl)-N-(3-fluoropropyl)benzamide]
≤ 3 nM	≤ 3 nM	** (5≤ratio<10)	CC1(CNC(=O)c2cccc(CNc3ncc(-c4ccnc(N)n4)c4c3CCO4)c2)CC1 [Example 30, 3-(((7-(2-Aminopyrimidin-4-yl)-2,3-dihydrofuro[3,2-c]pyridin-4-yl)amino)methyl)-N-((1-methylcyclopropyl)methyl)benzamide]
≤ 3 nM	≤ 3 nM	*** (ratio≥10)	CC(C)(F)CNC(=O)c1cccc(CNc2ncc(-c3ccnc(N)n3)c3c2CCO3)c1 [Example 31, 3-(((7-(2-Aminopyrimidin-4-yl)-2,3-dihydrofuro[3,2-c]pyridin-4-yl)amino)methyl)-N-(2-fluoro-2-methylpropyl)benzamide]
≤ 3 nM	≤ 3 nM	*** (ratio≥10)	COC(C)(C)CCNC(=O)c1cccc(CNc2ncc(-c3ccnc(N)n3)c3c2CCO3)c1 [Example 36, 3-(((7-(2-Aminopyrimidin-4-yl)-2,3-dihydrofuro[3,2-c]pyridin-4-yl)amino)methyl)-N-(3-methoxy-3-methylbutyl)benzamide]
≤ 3 nM	≤ 3 nM	*** (ratio≥10)	Nc1nccc(-c2cnc(NCc3cccc(C(=O)N[C@@H]4C[C@@H]4F)c3)c3c2OCC3)n1 [Example 37, 3-(((7-(2-Aminopyrimidin-4-yl)-2,3-dihydrofuro[3,2-c]pyridin-4-yl)amino)methyl)-N-((1R,2S)-2-fluorocyclopropyl)benzamide]
≤ 3 nM	≤ 3 nM	*** (ratio≥10)	Nc1nccc(-c2cnc(NCc3cccc(C(=O)NCC4CCO4)c3)c3c2OCC3)n1 (stereo not drawn) [Example 38, 3-(((7-(2-Aminopyrimidin-4-yl)-2,3-dihydrofuro[3,2-c]pyridin-4-yl)amino)methyl)-N-(oxetan-2-ylmethyl)benzamide]
≤ 3 nM	≤ 3 nM	*** (ratio≥10)	CCCNC(=O)c1cccc(CNc2ncc(-c3ccnc(N)n3)c3c2CCO3)c1 [Example 40, 3-(((7-(2-Aminopyrimidin-4-yl)-2,3-dihydrofuro[3,2-c]pyridin-4-yl)amino)methyl)-N-propylbenzamide]
≤ 3 nM	≤ 3 nM	*** (ratio≥10)	CC(F)(F)CNC(=O)c1cccc(CNc2ncc(-c3ccnc(N)n3)c3c2CCO3)c1 [Example 44, 3-(((7-(2-Aminopyrimidin-4-yl)-2,3-dihydrofuro[3,2-c]pyridin-4-yl)amino)methyl)-N-(2,2-difluoropropyl)benzamide]
≤ 3 nM	≤ 3 nM	*** (ratio≥10)	Nc1nccc(-c2cnc(NCc3cccc(C(=O)N[C@H]4C[C@H]4F)c3)c3c2OCC3)n1 [Example 47, 3-(((7-(2-Aminopyrimidin-4-yl)-2,3-dihydrofuro[3,2-c]pyridin-4-yl)amino)methyl)-N-((1S,2R)-2-fluorocyclopropyl)benzamide]
≤ 3 nM	≤ 3 nM	*** (ratio≥10)	Nc1nccc(-c2cnc(NCc3cccc(C(=O)NCCC(F)F)c3)c3c2OCC3)n1 [Example 50, 3-(((7-(2-Aminopyrimidin-4-yl)-2,3-dihydrofuro[3,2-c]pyridin-4-yl)amino)methyl)-N-(3,3-difluoropropyl)benzamide]

From patent US20240092790A1, “DIHYDROFUROPYRIDINE DERIVATIVES AS RHO- KINASE INHIBITORS” (CHIESI FARMACEUTICI S.P.A., priority 2020, published 2024)
